Test results taken from publication PMC5650142, “GPR40 partial agonists and AgoPAMs: Differentiating effects on glucose and hormonal secretions in the rodent” (PLoS ONE, 2017).
Several values for one entry are separate records, joined by “and”; a condition that tells them apart may be missing. Equal values may be shown once.

Test system: GK rats
Assay: GK rat chronic efficacy (28 days: glucose, food intake, body weight, GLP-1, GIP, PYY, insulin, glucagon)
Format: in vivo
Parameters: Food Intake Over Time (Fig 3C) / Total Body Weight Change Over Time / Active GLP-1 Levels Over Time: unit not given here
Conditions: for Total Body Weight Change Over Time / Active GLP-1 Levels Over Time / GIP Levels Over Time / PYY Levels Over Time / Plasma Insulin Over Time: GK rats
Procedure: At the start of the study, fed (ambient) blood glucose was measured via glucometer at 1 h post lights on, and animals were selected and sorted into treatment groups based on ambient glucose (n = 10/ GK group, n = 6 WKY control). Blood for baseline incretin measurements was collected in the PM via tail vein. Rats were dosed via oral gavage (PO) at a volume of 5 ml/kg daily at approximately 12:30 PM with either vehicle (0.5% methylcellulose), AP1 at 30 mg/kg, or AP3 at 30 mg/kg. MK-8666, a GPR40 partial agonist synthesized at Merck & Co., Inc., Kenilworth, NJ USA [13], at 30 mg/kg was administered in feed (Research Diets, New Brunswick, NJ) and provided ad lib. All compounds were administered to achieve maximal efficacious exposures determined in acute efficacy studies similar to those acute studies described above. In brief, partial agonists and AgoPAMs were titrated in the acute GK rat experiment described above and the exposure associated with maximal efficacy in glucose lowering was noted. Partial agonists and AgoPAMs were then dosed to maintain those exposures up to 24h post dose. […] Rats from this group and the WKY controls were administered vehicle PO when the vehicle, AP1, and AP3 groups were treated. Fed blood glucose, food intake, and body weights were determined on days 10, 17, 23, and 28 of study at 2 h post lights on. Immediately after these measures were taken on days 10, 17, 23, and 28, food was removed. After 5h of fasting, animals were dosed with vehicle or compound and allowed to rest for an additional hour. Glucose, GLP-1, GIP, and PYY were measured after 6h of fasting at 1 hr post dose. Fed blood glucose is described by animals having had ad libidum access to feed up till the time of sampling and occurred at 2h post-lights on where rats were nearing the end of their nocturnal feeding cycle. Fasted blood glucose is described by blood glucose sampled after 6h of fasting where food was removed at 2h post lights on. Please note that the fasted sample was taken 1h post oral dosing. On day 10, blood was collected from the tail vein (20 μl) after morning glucose measures and after 6 hour fast from a subset of n = 3 rats per treatment group to determine the fed and fasted exposure of the compounds in circulation. The blood was stored at 4°C in 0.1 M sodium citrate for subsequent analysis of drug exposure.
Blood for insulin, glucagon, GLP-1, GIP, and PYY measurements was collected into K2EDTA Microtainer tubes (BD, Franklin Lakes, NJ) pre-treated with DPP4 inhibitor (Millipore, Billerica, MA) and cOmplete™ Protease Inhibitor Cocktail Tablets (Roche Diagnostics, Indianapolis, IN). Tubes were centrifuged for 10 minutes at 5000 RPM, and plasma was aliquotted for analysis. Plasma insulin levels were measured via EIA (Mesoscale Discovery ELISA Kit, Gaithersburg MD). Rat plasma total GLP-1 was measured using Total GLP-1 (ver.2) Assay Kit (Cat#: K150JVC). The measurement of active GLP-1 was carried out in a similar manner as that described for total GLP-1 assay with the exception that MSD Active GLP-1 (ver. 2) assay kit (Cat# K150JWC) was used. Rat plasma glucagon was measured using an in-house glucagon assay developed as a MSD format sandwich immunoassay (Merck & Co., Inc., MRL, Kenilworth, NJ USA). The antibody specificity was cross validated via mass- spec using procedures described in Lee et al. Briefly, MSD Streptavidin Gold plates were coated with 2 μg/ml biotin mouse monoclonal antibody generated to glucagon. Test samples were added to the plates and a separate Sulfo- tagged monoclonal antibody was used to detect the captured glucagon protein (2 μg/ml). The ELISA was carried out in the standard reagents in the MSD format. The plate was read on the SECTOR Imager 6000 Reader. Metabolic hormones GIP (Gastric Inhibitory Polypeptide) and PYY (Peptide YY) were measured in rat plasma using the Rat Metabolic Magnetic Bead Panel (EMD Millipore, Billerica, MA). The assay was performed according to manufacturer protocol. […]

COc1ccc(F)c(-c2ccc([C@@H]3CCc4ccc([C@H](C5CC5)[C@H](C)C(=O)O)cc4O3)cc2)c1 [AP1]
Food Intake Over Time (Fig 3C) (30 mpk, Day 10): 14.85 and 15.61 and 15.57 and 15.255 and 16.22 | Food Intake Over Time (Fig 3C) (30 mpk, Day 17): 15.5286 and 15.8857 and 16.0214 and 17.2929 and 17.7357 | Food Intake Over Time (Fig 3C) (30 mpk, Day 23): 16.8417 and 19.1417 and 18.7583 and 18.725 and 18.4 | Food Intake Over Time (Fig 3C) (30 mpk, Day 28): 16.96 and 17.9 and 19.14 and 19.07 and 19.25 | Fed glucose on day 28 (Fig 3B) (30 mpk, day 28, fed, individual animals): 126 and 113 and 121 and 107 and 114 and 98 and 108 and 105 and 131 | fed blood glucose vs partial agonist MK-8666 (GK rat, 30 mg/kg, day 28): significantly reduced | Total Body Weight Change Over Time (30 mpk, Day 0, individual animals (Fig 3D)): 0 | Active GLP-1 Levels Over Time (30 mpk, Day 0, individual animals (Fig 4B), 30 mg/kg): 1.001 and 1.9298 and 1.3237 and 1.012 and 1.8577 and 2.191 and 1.713 and 1.556 and 0.8866 and 1.073 | GIP Levels Over Time (30 mpk, Day 0, individual animals (Fig 4C), 30 mg/kg, in pg/mL (unit assumed)): 80.27 and 43.35 and 55.2 and 66.33 and 82.49 and 41.1 and 77.69 and 54.81 and 38.69 and 31.07 | PYY Levels Over Time (30 mpk, Day 0, individual animals (Fig 4D), 30 mg/kg): 60.82 and 59.71 and 48.43 and 38.89 and 91.83 and 69.38 and 126.38 and 46.38 (2×) and 80.42 | Plasma Insulin Over Time (30 mpk, Day 0, individual animals (Fig 5A), 30 mg/kg): 1.323 ng/mL and 1.278 ng/mL and 2.387 ng/mL and 1.318 ng/mL and 1.715 ng/mL and 1.561 ng/mL and 2.638 ng/mL and 2.341 ng/mL and 1.122 ng/mL and 2.349 ng/mL | Total Body Weight Change Over Time (30 mpk, Day 10, individual animals (Fig 3D), 30 mg/kg): 10 and 3 (2×) and 13 and 6 and 2 (3×) and -13 and 5 | Active GLP-1 Levels Over Time (30 mpk, Day 10, individual animals (Fig 4B), 30 mg/kg): 10.3955 and 6.299 and 7.593 and 12.0213 and 6.042 and 7.2 and 9.814 and 9.197 and 8.5449 and 7.4703 | GIP Levels Over Time (30 mpk, Day 10, individual animals (Fig 4C), 30 mg/kg, in pg/mL (unit assumed)): 505.7 and 493.84 and 467.75 and 217.82 and 519.4 and 141.67 and 384.6 and 413 and 296.23 and 81.09 | PYY Levels Over Time (30 mpk, Day 10, individual animals (Fig 4D), 30 mg/kg, in pg/mL (unit assumed)): 253.19 and 328.35 and 279.77 and 271.66 and 270.68 and 232.37 and 216.99 and 227.15 and 181.2 and 198.89 | Plasma Insulin Over Time (30 mpk, Day 10, individual animals (Fig 5A), 30 mg/kg): 1.155 ng/mL and 0.724 ng/mL and 1.551 ng/mL and 0.8718 ng/mL and 1.112 ng/mL and 0.8329 ng/mL and 1.613 ng/mL and 0.7139 ng/mL and 1.088 ng/mL and 1.543 ng/mL | Total Body Weight Change Over Time (30 mpk, Day 17, individual animals (Fig 3D), 30 mg/kg): 18 (2×) and 8 and 24 and 16 and 0 and 7 and -9 and 10 and 9 | Active GLP-1 Levels Over Time (30 mpk, Day 17, individual animals (Fig 4B), 30 mg/kg): 8.6 and 3.38 and 5.23 and 6.69 and 6.32 and 4.97 and 3.57 and 4.69 and 6.47 and 5.55 | GIP Levels Over Time (30 mpk, Day 17, individual animals (Fig 4C), 30 mg/kg, in pg/mL (unit assumed)): 378.278 and 410.03 and 370.39 and 471.66 and 268.89 and 337.14 and 352.79 and 447.92 and 402.03 | PYY Levels Over Time (30 mpk, Day 17, individual animals (Fig 4D), 30 mg/kg, in pg/mL (unit assumed)): 228.528 and 168.33 and 149.79 and 211.65 and 178.66 and 141.57 and 165.72 and 207.01 and 161.08 | Plasma Insulin Over Time (30 mpk, Day 17, individual animals (Fig 5A), 30 mg/kg): 1.312 ng/mL and 1.435 ng/mL and 1.262 ng/mL and 0.9925 ng/mL and 0.7824 ng/mL and 0.7213 ng/mL and 1.004 ng/mL and 1.148 ng/mL and 1.876 ng/mL and 2.528 ng/mL | Total Body Weight Change Over Time (30 mpk, Day 23, individual animals (Fig 3D), 30 mg/kg): 24 and 11 and 37 and 25 and 27 and 22 and 16 and -6 and 9 and 12 | Total Body Weight Change Over Time (30 mpk, Day 28, individual animals (Fig 3D), 30 mg/kg): 32 and 14 and 36 and 27 and 34 and 30 and 23 and 3 and 20 and 21 | Active GLP-1 Levels Over Time (30 mpk, Day 28, individual animals (Fig 4B), 30 mg/kg): 4.803 and 5.789 and 8.538 and 7.972 and 5.7178 and 6.58 and 6.497 and 8.013 and 7.134 and 7.267 | GIP Levels Over Time (30 mpk, Day 28, individual animals (Fig 4C), 30 mg/kg, in pg/mL (unit assumed)): 265.13 and 306.48 and 225.82 and 160.64 and 220.15 and 277.09 and 298.29 and 238.76 and 210.52 and 175.96 | PYY Levels Over Time (30 mpk, Day 28, individual animals (Fig 4D), 30 mg/kg, in pg/mL (unit assumed)): 152.15 and 162.1 and 214.06 and 98.83 and 138.17 and 173.94 and 241.37 and 220.84 and 169.14 and 119.76 | Plasma Insulin Over Time (30 mpk, Day 28, individual animals (Fig 5A), 30 mg/kg): 1.27 ng/mL and 1.377 ng/mL and 1.276 ng/mL and 0.4335 ng/mL and 1.675 ng/mL and 1.248 ng/mL and 2.339 ng/mL and 0.9305 ng/mL and 0.8869 ng/mL and 1.165 ng/mL
